Results on eleven molecules are retold here after ChEMBL document CHEMBL1201862, “PubChem BioAssay data set” (2004).

Among the test systems are M14; OVCAR-5; BT-549; KM12; SK-MEL-28; MDA-MB-231; NCI-H23; SK-MEL-5; HCC 2998; COLO 205; K562; SF-295; NCI-H460; HCT-15; HOP-92; SF-539; 786-0; HCT-116; Malme-3M.
Common to all, as to test: NCI tumour cell line growth inhibition, 48 h

SMILES strings stand for the structures.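 Results reflect a 48-hour exposure of cells in 96-well plates to compound at five concentrations. At the GI50, growth is halved.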 Calls of active or inactive are those of the source. No stated cut-off is given here; in the data, active = GI50 up to about 1.1 µM and inactive = higher.

Regarding `O=P1(N(CCCl)CCCl)Oc2ccc(Cl)cc2Sc2c(ccc(Cl)c2Cl)O1` (configuration not stated), the GI50 is 17.8 µM (inactive) in the assay on M14; 27.4 µM (inactive) with OVCAR-5; 29.1 µM (inactive) in the assay with BT-549; 4.99 µM (inactive) in the assay on KM12; 11.5 µM (inactive) in the assay with SK-MEL-28; 12.3 µM (inactive) with MDA-MB-231. Besides, the GI50 is 4.27 µM (inactive) in the assay on NCI-H23; 5.02 µM (inactive) in the assay on SK-MEL-5; 16.5 µM (inactive) in the assay on HCC 2998; 8.18 µM (inactive) in the assay on COLO 205; 3.47 µM (inactive) in the assay with K562; 3.18 µM (inactive) with SF-295. Moreover, the GI50 in the assay on NCI-H460 is 4.79 µM (inactive); with HCT-15, 5.18 µM; in the assay with HOP-92, 4.42 µM (inactive); in the assay on SF-539 it was 23.3 µM (inactive); with 786-0 it was 8.13 µM (inactive); in the assay on HCT-116, 4.97 µM (inactive).
As for `NC(=O)c1cc2ccc(O)cc2o/c1=N/c1ccccc1`, the GI50 is 29.5 µM (inactive) in the assay with M14; 67.9 µM (inactive) in the assay on OVCAR-5; 24.4 µM (inactive) with BT-549; 27.2 µM (inactive) with KM12; 35.6 µM (inactive) with SK-MEL-28; 67.8 µM (inactive) in the assay with MDA-MB-231. The GI50 is 18.1 µM (inactive) in the assay with NCI-H23; 18.4 µM (inactive) in the assay on SK-MEL-5; 22.2 µM (inactive) in the assay on HCC 2998; 18.5 µM (inactive) in the assay on COLO 205; 34.5 µM (inactive) in the assay with K562; 43.5 µM (inactive) with SF-295. The GI50 is 25.9 µM (inactive) in the assay on NCI-H460; 26.4 µM in the assay with HCT-15; 50.8 µM (inactive) with Malme-3M; 34 µM (inactive) in the assay with HOP-92; 30.3 µM (inactive) with 786-0; 24.4 µM (inactive) in the assay on HCT-116.
`COc1ccc(/N=N/C(=N\c2ccc(F)cc2)c2ccc(N(CCC#N)CCC#N)cc2)cc1`: the GI50 was 28.6 µM (inactive) in the assay with M14; 52.1 µM (inactive) in the assay on OVCAR-5; 17.5 µM (inactive) in the assay on BT-549; 16.9 µM (inactive) in the assay with KM12; 39 µM (inactive) in the assay with SK-MEL-28; 14.3 µM (inactive) in the assay on MDA-MB-231. Also, the GI50 with NCI-H23 is 17.4 µM (inactive); with SK-MEL-5, 12.4 µM (inactive); with HCC 2998, 19.1 µM (inactive); in the assay on COLO 205, 39.2 µM (inactive); with K562, 27.6 µM (inactive); in the assay with SF-295, 32.9 µM (inactive). In addition, the GI50 in the assay on NCI-H460 is 20.2 µM (inactive); in the assay on HCT-15, 54 µM; in the assay with HOP-92 it was 25.6 µM (inactive); in the assay with SF-539 it was > 100 µM (inactive); in the assay with 786-0, 42.3 µM (inactive); with HCT-116, 32.6 µM (inactive).
Turning to `NS(=O)(=O)c1ccc(C(=O)O)cc1` [CARZENIDE], the GI50 in the assay on M14, with OVCAR-5, in the assay with BT-549, with KM12, in the assay with SK-MEL-28 and in the assay on MDA-MB-231 was > 100 µM (inactive) in each case. In addition, the GI50 in the assay on NCI-H23 is > 100 µM (inactive); in the assay with SK-MEL-5, > 100 µM (inactive); in the assay on COLO 205, > 100 µM (inactive); with K562, > 100 µM (inactive); with SF-295 it was > 100 µM (inactive); with HCT-15, greater than 100 µM. For the same molecule, the GI50 was > 100 µM (inactive) in the assay on Malme-3M, 97.5 µM (inactive) with HOP-92, > 100 µM (inactive) in the assay with 786-0 and > 100 µM (inactive) in the assay on HCT-116.
Consider `CC(C)CCCC(C)[C@H]1CC[C@H]2[C@@H]3CC[C@H]4C[C@@H](CCC=C(c5cc(Cl)c(O)c(C(=O)OC(C)C)c5)c5cc(Cl)c(O)c(C(=O)OC(C)C)c5)CC[C@]4(C)[C@H]3CC[C@]12C` (some centres not stated), for which the GI50 with M14, in the assay with OVCAR-5, in the assay on BT-549, in the assay with KM12, with SK-MEL-28 and in the assay with MDA-MB-231 was > 50 µM (inactive) each time. For the same molecule, the GI50 in the assay with NCI-H23, in the assay with SK-MEL-5, in the assay with HCC 2998, in the assay on COLO 205, in the assay on K562 and with SF-295 was > 50 µM (inactive) each time. In addition, the GI50 with HCT-15 is greater than 50 µM; in the assay with HOP-92, > 50 µM (inactive); in the assay on SF-539, > 50 µM (inactive); in the assay with 786-0, > 50 µM (inactive); with HCT-116, > 50 µM (inactive).
With `O=C1CSC(c2ccccc2O)N1c1ccc(-c2ccc(-n3c(-c4ccccc4)nc4ccccc4c3=O)cc2)cc1` (configuration not stated), the GI50 in the assay on M14 was 38.5 µM (inactive); in the assay with OVCAR-5, 43.1 µM (inactive); in the assay with BT-549, 13.7 µM (inactive); in the assay on KM12, 13.9 µM (inactive); with SK-MEL-28, 37.9 µM (inactive); in the assay with MDA-MB-231, 36.9 µM (inactive). Besides, the GI50 with NCI-H23 is 43.9 µM (inactive); with COLO 205 it was 21.6 µM (inactive); in the assay with K562, 24.9 µM (inactive); in the assay on SF-295, 22.5 µM (inactive); in the assay with NCI-H460, 35.7 µM (inactive); with HCT-15, 33.7 µM. The GI50 was 17.2 µM (inactive) in the assay on Malme-3M; 27.6 µM (inactive) in the assay on HOP-92; 32.1 µM (inactive) with SF-539; 18.7 µM (inactive) with 786-0; 29.5 µM (inactive) with HCT-116.
As for `Nc1nc2c(c(-c3ccccc3Cl)n1)COC/C2=C\c1ccccc1Cl`, the GI50 in the assay on M14 is 15.7 µM (inactive); in the assay with OVCAR-5, 17.2 µM (inactive); in the assay with BT-549, 16 µM (inactive); with KM12 it was 17.9 µM (inactive); in the assay on MDA-MB-231, 16.9 µM (inactive); with NCI-H23, 17.1 µM (inactive). For the same molecule, the GI50 in the assay with SK-MEL-5 is 16.4 µM (inactive); in the assay with HCC 2998, 19.5 µM (inactive); with COLO 205, 16.3 µM (inactive); in the assay with K562, 12.2 µM (inactive); with SF-295, 14.3 µM (inactive); with NCI-H460, 18.6 µM (inactive). The GI50 is 15.9 µM in the assay on HCT-15; 14.8 µM (inactive) in the assay on HOP-92; 18.2 µM (inactive) with SF-539; 17.2 µM (inactive) with 786-0; 15.8 µM (inactive) with HCT-116.
For the molecule `O=C1CC(c2cccc(Cl)c2)Nc2ccc(N3CCCC3)cc21` (configuration not stated), the GI50 with M14 is 0.028 µM (active); with OVCAR-5 it was 0.526 µM (active); with BT-549 it was 1.29 µM (inactive); in the assay with KM12, 0.361 µM (active); with SK-MEL-28 it was 0.189 µM (active); with MDA-MB-231, 0.366 µM (active). Besides, the GI50 in the assay with NCI-H23 is 0.278 µM (active); in the assay with SK-MEL-5, 0.0305 µM (active); in the assay on HCC 2998, 0.335 µM (active); with COLO 205 it was 0.194 µM (active); with K562, 0.0863 µM (active); in the assay with SF-295, 0.0439 µM (active). The GI50 with NCI-H460 was 0.0506 µM (active); in the assay with HCT-15, 0.203 µM; with HOP-92, 0.373 µM (active); with SF-539, 0.0263 µM (active); with 786-0 it was 0.0577 µM (active); in the assay on HCT-116, 0.0385 µM (active).
For the molecule `OCCOCCN1CCN(CCCN2c3ccccc3Sc3ccc(C(F)(F)F)cc32)CC1`, the GI50 in the assay on M14 is 2.65 µM (inactive); in the assay on OVCAR-5, 14.3 µM (inactive); in the assay with BT-549, 19.8 µM (inactive); with KM12, 6.7 µM (inactive); in the assay with SK-MEL-28, 3.27 µM (inactive); in the assay on MDA-MB-231, 11.1 µM (inactive). In addition, the GI50 with NCI-H23 is 16.4 µM (inactive); in the assay with SK-MEL-5, 3.22 µM (inactive); in the assay on HCC 2998, 2.78 µM (inactive); in the assay on COLO 205, 1.75 µM (inactive); in the assay on K562 it was 2.79 µM (inactive); with SF-295, 12.9 µM (inactive). Also, the GI50 was 9.95 µM (inactive) with NCI-H460; 21.6 µM in the assay with HCT-15; 14.1 µM (inactive) with HOP-92; 12.4 µM (inactive) in the assay on SF-539; 16.6 µM (inactive) with 786-0; 7.91 µM (inactive) with HCT-116.
In the case of `CON(C(=O)OC(C)(C)C)c1ccccc1`, the GI50 in the assay on M14 was > 100 µM (inactive); with OVCAR-5 it was > 100 µM (inactive); in the assay with BT-549 it was 43.6 µM (inactive); in the assay with KM12, > 100 µM (inactive); in the assay with SK-MEL-28, > 100 µM (inactive); in the assay on MDA-MB-231 it was > 100 µM (inactive). In addition, the GI50 in the assay with NCI-H23, with SK-MEL-5, in the assay on HCC 2998, in the assay with COLO 205, in the assay on K562 and in the assay on SF-295 was > 100 µM (inactive) each time. The GI50 in the assay with NCI-H460 is > 100 µM (inactive); in the assay with HCT-15 it was greater than 100 µM; with Malme-3M it was > 100 µM (inactive); in the assay with HOP-92 it was > 100 µM (inactive); in the assay on 786-0, > 100 µM (inactive); in the assay on HCT-116, > 100 µM (inactive).
As to `CCCCCCCCNC(=O)C1=C(C)NC(C)=C(C(=O)NCCCCCCCC)C1`, the GI50 was > 100 µM (inactive) in the assay with M14; > 100 µM (inactive) with OVCAR-5; > 100 µM (inactive) in the assay with BT-549; > 100 µM (inactive) in the assay on KM12; 69.3 µM (inactive) in the assay with MDA-MB-231; > 100 µM (inactive) in the assay on NCI-H23. The GI50 in the assay on SK-MEL-5, in the assay with HCC 2998, in the assay on COLO 205, with K562, with SF-295 and in the assay on NCI-H460 was > 100 µM (inactive) each time. In addition, the GI50 in the assay on HCT-15 is greater than 100 µM; with HOP-92, > 100 µM (inactive); in the assay on SF-539, > 100 µM (inactive); in the assay on 786-0, > 100 µM (inactive); in the assay on HCT-116, > 100 µM (inactive).
